Measured values taken from PubChem BioAssay (NCI).
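Assay format: 96-well plates, 48-hour exposure. The concentration for 50% growth inhibition is given as GI50. TGI: total growth inhibition.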

Tests used:
Assay in all cases: NCI tumour cell line growth inhibition, 48 h
KM20L2 colon = tested on: KM20L2 colon
DMS 273 small cell lung = tested on: DMS 273 small cell lung
XF 498 CNS = tested on: XF 498 CNS
SNB-78 CNS = tested on: SNB-78 CNS
MDA-N = tested on: MDA-N
M19-MEL melanoma = tested on: M19-MEL melanoma
LXFL 529 NSCLC = tested on: LXFL 529 NSCLC
HOP-18 NSCLC = tested on: HOP-18 NSCLC
RXF-631 renal = tested on: RXF-631 renal

CN1CCc2cc(O)c3cc2C1Cc1ccc(cc1)Oc1cc(ccc1O)CC1c2c(cc4c(c2O3)OCO4)CCN1C (stereo not drawn)
TGI (KM20L2 colon): 45.9 µM | TGI (DMS 273 small cell lung): 86.2 µM | TGI (XF 498 CNS): 29.2 µM | TGI (SNB-78 CNS): > 100 µM

O=[N+]([O-])c1ccc(NN=C2c3ccccc3Cc3ccccc32)c([N+](=O)[O-])c1
TGI (MDA-N): 7.75 µM

CN/N=C(/CC(=O)c1sc(-n2nc(-c3ccccc3)cc2-c2ccccc2)nc1C)C(=O)Nc1ccc(Cl)c(Cl)c1
TGI (M19-MEL melanoma): > 100 µM | TGI (LXFL 529 NSCLC): > 100 µM | TGI (SNB-78 CNS): > 100 µM

CS(=O)(=O)N(CC(=O)O)Cc1ccccc1
TGI (MDA-N): > 100 µM

CCOC1=C2C(C)(CCC3[C@@]4(C)C=CC(=O)C(C)(C)C4CC(O)[C@@]23C)C(c2ccoc2)C1=O (stereo partly drawn)
TGI (KM20L2 colon): 32 µM | TGI (DMS 273 small cell lung): > 100 µM | TGI (M19-MEL melanoma): 44.1 µM | TGI (HOP-18 NSCLC): > 100 µM | TGI (RXF-631 renal): 70.5 µM | TGI (SNB-78 CNS): > 100 µM

O=C(CC(=O)c1cccc([N+](=O)[O-])c1)C(=O)Nc1nc([N+](=O)[O-])cs1
TGI (KM20L2 colon): > 100 µM | TGI (DMS 273 small cell lung): > 100 µM | TGI (M19-MEL melanoma): > 100 µM | TGI (LXFL 529 NSCLC): > 100 µM | TGI (HOP-18 NSCLC): > 100 µM | TGI (RXF-631 renal): > 100 µM | TGI (SNB-78 CNS): > 100 µM

Cc1cc(O)c(O)c(Oc2cc(C)cc(O)c2O)c1
TGI (MDA-N): > 100 µM

CCC[CH2][Ge]([CH2]CCC)([CH2]CCC)[O]C(=O)C(OC(C)=O)c1ccccc1 (stereo not drawn)
GI50 (KM20L2 colon): 0.652 µM | TGI (KM20L2 colon): 15.2 µM | GI50 (DMS 273 small cell lung): 5.84 µM | TGI (DMS 273 small cell lung): > 37 µM | GI50 (M19-MEL melanoma): 5.13 µM | TGI (M19-MEL melanoma): 20.3 µM | GI50 (LXFL 529 NSCLC): 1.31 µM | TGI (LXFL 529 NSCLC): 21 µM | GI50 (HOP-18 NSCLC): 16.2 µM | TGI (HOP-18 NSCLC): 43.8 µM | GI50 (XF 498 CNS): 2.57 µM | TGI (XF 498 CNS): 15.4 µM | GI50 (SNB-78 CNS): 2.99 µM | TGI (SNB-78 CNS): 24.7 µM

N#Cc1nc(Nc2ccc(Cl)cc2)sc1N
TGI (KM20L2 colon): > 52 µM | TGI (DMS 273 small cell lung): > 63.8 µM | TGI (M19-MEL melanoma): > 100 µM | TGI (LXFL 529 NSCLC): 22.7 µM | TGI (HOP-18 NSCLC): > 100 µM | TGI (XF 498 CNS): > 100 µM | TGI (SNB-78 CNS): > 100 µM

Nc1nc(Cl)nc2c1ncn2C1CCC(COP(=O)(O)OP(=O)(O)OP(=O)(O)O)O1 (stereo not drawn)
TGI (MDA-N): > 100 µM

O=C1C2C3CCC(C2C(=O)N1CO)C1C2C(=O)N(CO)C(=O)C2C31 (stereo not drawn)
TGI (KM20L2 colon): > 79.8 µM | TGI (DMS 273 small cell lung): > 58.1 µM | TGI (M19-MEL melanoma): > 100 µM | TGI (LXFL 529 NSCLC): > 100 µM | TGI (HOP-18 NSCLC): 34.2 µM | TGI (XF 498 CNS): > 100 µM | TGI (SNB-78 CNS): > 100 µM

CC1=C2[C@@H](c3ccccc3)C3C=CC2(c2ccccc23)N(C(=O)Nc2cccc3ccccc23)C1=O (stereo partly drawn)
TGI (KM20L2 colon): > 100 µM | TGI (DMS 273 small cell lung): > 100 µM | TGI (LXFL 529 NSCLC): > 100 µM | TGI (HOP-18 NSCLC): > 100 µM | TGI (XF 498 CNS): > 100 µM | TGI (SNB-78 CNS): > 100 µM

N#CC(C#N)=Cc1ccc(Oc2ccccc2)cc1
TGI (KM20L2 colon): > 100 µM | TGI (DMS 273 small cell lung): 37 µM | TGI (M19-MEL melanoma): > 64.8 µM | TGI (LXFL 529 NSCLC): 56.7 µM | TGI (HOP-18 NSCLC): 89.8 µM | TGI (XF 498 CNS): > 100 µM | TGI (RXF-631 renal): > 100 µM | TGI (SNB-78 CNS): > 90.8 µM

COc1ccc(NC(=O)CC(=O)n2nc(-c3ccccc3)c(N=Nc3ccccc3C)c2-c2ccccc2)cc1
TGI (KM20L2 colon): > 100 µM | TGI (DMS 273 small cell lung): 41.2 µM | TGI (M19-MEL melanoma): > 100 µM | TGI (LXFL 529 NSCLC): > 100 µM | TGI (HOP-18 NSCLC): > 100 µM | TGI (MDA-N): > 100 µM | TGI (XF 498 CNS): 33.3 µM | TGI (RXF-631 renal): > 100 µM

CCCCCCCCCCCCCC(=O)OC1C(CO)OC(=O)C1O (stereo not drawn)
TGI (KM20L2 colon): > 100 µM | TGI (DMS 273 small cell lung): > 100 µM | TGI (M19-MEL melanoma): > 100 µM | TGI (LXFL 529 NSCLC): > 100 µM | TGI (HOP-18 NSCLC): > 100 µM | TGI (XF 498 CNS): > 100 µM | TGI (SNB-78 CNS): > 100 µM

CCCC(=O)Nc1ncnc2c1ncn2C1OC2COP(=O)(O)OC2C1OC(=O)CCC (stereo not drawn)
GI50 (MDA-N): > 1000 µM | TGI (MDA-N): > 1000 µM

C[CH2][Sn]([Cl])([CH2]C)[CH2]C
GI50 (KM20L2 colon): 0.524 µM | TGI (KM20L2 colon): 2.99 µM | GI50 (M19-MEL melanoma): 2.06 µM | TGI (M19-MEL melanoma): 11.4 µM | GI50 (LXFL 529 NSCLC): 0.469 µM | TGI (LXFL 529 NSCLC): 3.27 µM | GI50 (XF 498 CNS): 0.867 µM | TGI (XF 498 CNS): 3.26 µM | GI50 (SNB-78 CNS): 0.922 µM | TGI (SNB-78 CNS): 5.04 µM
